Test results: patent publication US9000022B2 (Exelixis Patent Company LLC, priority 2005, dated 2015)

Test system: LXRα and/or LXRβ
Test: Co-transfection assay (LXRE luciferase reporter, CV-1 cells)
Format: cell-based, human
Settings: for IC50 or EC50 (potency, activation or inhibition): tested as described in Example 33, IC50 or EC50 for LXRα and/or LXRβ, isoform not specified, read-out: activity (IC50 or EC50 for LXR)
Procedure, shortened: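 CV-1 cells transiently co-transfected with full-length human LXRα or LXRβ plus RXRα, an LXRE×1-Tk-luciferase reporter and a β-galactosidase control. Compounds incubated 20 h at 37 °C (≤1% DMSO; screen at 10 μM final); luciferase read after lysis. EC50/IC50 from 8-point half-log curves (4 wells per point, ≥3 experiments); efficacy relative to a reference agonist high control and DMSO.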

| IC50 or EC50 (potency, activation or inhibition) [nM] | SMILES | EC50 (read-out: activity (IC50 or EC50 for LXR), tested as described in Example 33, isoform not specified) [nM] |
| --- | --- | --- |
| < 1000 | CCS(=O)(=O)c1cccc(-c2ccc(-n3cc(C(C)(C)O)nc3-c3c(F)cccc3Cl)c(F)c2)c1 [Example 126, 2-(2-(2-chloro-6-fluorophenyl)-1-(3′-(ethylsulfonyl)-3-fluorobiphenyl-4-yl)-1H-imidazol-4-yl)propan-2-ol] |  |
| < 1000 | CC(C)(O)c1cn(-c2ccc(-c3ccc(CO)c(S(C)(=O)=O)c3)cc2F)c(-c2cccc(Cl)c2Cl)n1 [Example 117, 2-(2-(2,3-dichlorophenyl)-1-(3-fluoro-4′-(hydroxymethyl)-3′-(methyl-sulfonyl)biphenyl-4-yl)-1H-imidazol-4-yl)propan-2-ol] |  |
| < 1000 | CS(=O)(=O)c1cccc(-c2ccc(-n3cc(C(=O)NCC(F)(F)F)nc3-c3ccccc3Cl)cc2)c1 [Example 397, 2-(2-chlorophenyl)-1-[3′-(methyl-sulfonyl)biphenyl-4-yl]-N-(2,2,2-trifluoroethyl)-1H-imidazole-4-carboxamide] |  |
| < 1000 | CC(C)(O)c1cn(-c2ccc(-c3cccc(S(C)(=O)=O)c3)cc2Cl)c(-c2c(F)cccc2F)n1 [Example 157, 2-(1-(3-chloro-3′-(methyl-sulfonyl)biphenyl-4-yl)-2-(2,6-difluorophenyl)-1H-imidazol-4-yl)propan-2-ol] |  |
| < 1000 | Cc1cc(-c2cccc(S(C)(=O)=O)c2)ccc1-n1cc(C(C)(C)O)nc1-c1ccccc1C(F)(F)F [Example 183, 2-(1-(3-methyl-3′-(methyl-sulfonyl)biphenyl-4-yl)-2-(2-(trifluoromethyl)phenyl)-1H-imidazol-4-yl)propan-2-ol] |  |
| < 1000 | COc1ccc(-c2ccc(-n3cc(C(C)(C)O)nc3-c3cccc(Cl)c3Cl)cc2)cc1S(C)(=O)=O [Example 455, 2-(2-(2,3-dichlorophenyl)-1-(4′-methoxy-3′-(methylsulfonyl)biphenyl-4-yl)-1H-imidazol-4-yl)propan-2-ol] |  |
| 1000 to 10000 | CC(C)(O)c1cn(-c2ccc(-c3cccc(S(C)(=O)=O)c3)cc2)c(-c2ccccc2)n1 [Example 378, 2-{1-[3′-(methylsulfonyl)biphenyl-4-yl]-2-phenyl-1H-imidazole-4-yl}propan-2-ol] |  |
| < 1000 | CC(C)(O)c1cn(-c2ccc(-c3cccc(S(C)(=O)=O)c3)cc2)c(-c2ccccc2Cl)n1 [Example 379, 2-{2-(2-chlorophenyl)-1-[3′-(methylsulfonyl)biphenyl-4-yl]-1H-imidazol-4-yl}propan-2-ol] |  |
| < 1000 | CS(=O)(=O)c1cccc(-c2ccc(-n3cc(C(F)(F)F)nc3-c3ccccc3C(F)(F)F)nc2)c1 [Example 369, 5-[3-(methylsulfonyl)phenyl]-2-{4-(trifluoromethyl)-2-[2-(trifluoro-methyl)phenyl]-1H-imidazol-1-yl}pyridine] |  |
| 1000 to 10000 | CC(C)(O)c1cn(-c2ccc(-c3cccc(S(C)(=O)=O)c3)cn2)c(-c2ccccc2C(F)(F)F)n1 [Example 420, 2-(1-{5-[3-(methyl-sulfonyl)phenyl]pyridin-2-yl}-2-[2-(trifluoromethyl)phenyl]-1H-imidazol-4-yl)propan-2-ol] |  |
|  | CC(C)(O)c1cn(-c2ccc(-c3cccc(S(C)(=O)=O)c3)cc2Cl)c(Cc2cccc(Cl)c2Cl)n1 [Example 25, 2-(1-(3-chloro-3′-(methyl-sulfonyl)biphenyl-4-yl)-2-(2,3-dichlorobenzyl)-1H-imidazol-4-yl)propan-2-ol] | < 1000 |
| < 1000 | CC(C)(O)c1cn(-c2ccc(-c3ccc(CO)c(S(C)(=O)=O)c3)cc2Cl)c(-c2c(F)cccc2F)n1 [Example 159, 2-(1-(3-chloro-4′-(hydroxymethyl)-3′-(methylsulfonyl)biphenyl-4-yl)-2-(2,6-difluorophenyl)-1H-imidazol-4-yl)propan-2-ol] |  |
| < 1000 | CCC(O)(CC)c1cn(-c2ccc(-c3cccc(S(C)(=O)=O)c3)cc2)c(-c2c(Cl)cccc2Cl)n1 [Example 74, 3-(2-(2,6-dichlorophenyl)-1-(3′-(methylsulfonyl)biphenyl-4-yl)-1H-imidazol-4-yl)pentan-3-ol] |  |
| 1000 to 10000 | COC(=O)c1cccc(-c2ccc(-n3cc(C(C)(C)O)nc3-c3ccccc3Cl)cc2)c1 [Example 390, methyl 4′-[2-(2-chlorophenyl)-4-(1-hydroxy-1-methylethyl)-1H-imidazol-1-yl]biphenyl-3-carboxylate] |  |
| < 1000 | CC(C)(O)c1nc(-c2ccccc2C(F)(F)F)n(-c2ccc(-c3cccc(S(C)(=O)=O)c3)cc2)c1Cl [Example 403, 2-{5-chloro-1-[3′-(methyl-sulfonyl)biphenyl-4-yl]-2-[2-(trifluoro-methyl)phenyl]-1H-imidazol-4-yl}propan-2-ol] |  |
| < 1000 | CC(C)(O)c1cn(-c2ccc(-c3ccc(CO)c(S(C)(=O)=O)c3)cc2Cl)c(-c2ccccc2Cl)n1 [Example 138, 2-(1-(3-chloro-4′-(hydroxymethyl)-3′-(methylsulfonyl)biphenyl-4-yl)-2-(2-chlorophenyl)-1H-imidazol-4-yl)propan-2-ol] |  |

| IC50 or EC50 (potency, activation or inhibition) [nM] | SMILES | EC50 (read-out: activity (IC50 or EC50 for LXR), tested as described in Example 33, isoform not specified) [nM] |
| --- | --- | --- |
| < 1000 | CC(C)(O)c1cn(-c2ccc(-c3cccc(S(C)(=O)=O)c3)cc2F)c(-c2ccccc2C(F)(F)F)n1 [Example 109, 2-(1-(3-fluoro-3′-(methyl-sulfonyl)biphenyl-4-yl)-2-(2-(trifluoromethyl)phenyl)-1H-imidazol-4-yl)propan-2-ol] |  |
| < 1000 | CC(C)(O)c1cn(-c2ccc(-c3cc(C(F)(F)F)ccc3F)cc2)c(-c2ccccc2C(F)(F)F)n1 [Example 220, 2-{1-[2′-fluoro-5′-(trifluoro-methyl)biphenyl-4-yl]-2-[2-(trifluoro-methyl)phenyl]-1H-imidazol-4-yl}propan-2-ol] |  |
| < 1000 | CC(C)(O)c1cn(-c2ccc(-c3cccc(S(C)(=O)=O)c3)cc2Cl)c(-c2ccccc2Cl)n1 [Example 417, 2-{1-[3-chloro-3′-(methyl-sulfonyl)biphenyl-4-yl]-2-(2-chlorophenyl)-1H-imidazol-4-yl}propan-2-ol] |  |
| < 1000 | CCS(=O)(=O)c1cccc(-c2ccc(-n3cc(C(C)(C)O)nc3-c3nccc4ccccc34)c(Cl)c2)c1 [Example 34, 2-(1-(3-chloro-3′-(ethyl-sulfonyl)biphenyl-4-yl)-2-(isoquinolin-1-yl)-1H-imidazol-4-yl)propan-2-ol] |  |
| 1000 to 10000 | Cc1cc(-c2cccc(S(C)(=O)=O)c2)ccc1-n1cc(C(C)(C)O)nc1-c1cccs1 [Example 41] |  |
| < 1000 | Cc1cc(-c2cccc(S(C)(=O)=O)c2)ccc1-c1nc(C(C)(C)O)cn1-c1ccccc1C(C)C [Example 61, 2-(1-(2-isopropylphenyl)-2-(3-methyl-3′-(methylsulfonyl)biphenyl-4-yl)-1H-imidazol-4-yl)propan-2-ol] |  |
| < 1000 | CC(C)(O)c1cn(-c2ccc(-c3cccc(S(C)(=O)=O)c3)cc2Cl)c(-c2cccc3ccccc23)n1 [Example 30, 2-(1-(3-chloro-3′-(methyl-sulfonyl)biphenyl-4-yl)-2-(naphthalen-1-yl)-1H-imidazol-4-yl)propan-2-ol] |  |
| 1000 to 10000 | CCOC(=O)c1ccc(-c2ccc(-n3cc(C(C)(C)O)nc3-c3c(F)cccc3Cl)c(Cl)c2)cc1S(C)(=O)=O [Example 165, ethyl 3′-chloro-4′-(2-(2-chloro-6-fluorophenyl)-4-(2-hydroxypropan-2-yl)-1H-imidazol-1-yl)-3-(methyl-sulfonyl)biphenyl-4-carboxylate] |  |
| < 1000 | CS(=O)(=O)Nc1cccc(-c2ccc(-n3cc(C(F)(F)F)nc3-c3ccccc3C(F)(F)F)cc2)c1 [Example 375, N-(4′-{4-(trifluoromethyl)-2-[2-(trifluoromethyl)phenyl]-1H-imidazol-1-yl}biphenyl-3-yl)methane-sulfonamide] |  |
| 1000 to 10000 | Cc1cc(-c2cccc(S(C)(=O)=O)c2)ccc1-n1cc(C(C)(C)O)nc1-c1cccc2cnccc12 [Example 35, 2-(2-(isoquinolin-5-yl)-1-(3-methyl-3′-(methylsulfonyl)biphenyl-4-yl)-1H-imidazol-4-yl)propan-2-ol] |  |
| < 1000 | CC(C)(O)c1cn(-c2ccc(-c3cccc(S(C)(=O)=O)c3)cc2Cl)c(-c2cccc(Cl)c2Cl)n1 [Example 140, 2-(1-(3-chloro-3′-(methyl-sulfonyl)biphenyl-4-yl)-2-(2,3-dichlorophenyl)-1H-imidazol-4-yl)propan-2-ol] |  |
| < 1000 | CCS(=O)(=O)c1cc(-c2ccc(-n3cc(C(C)(C)O)nc3Cc3c(Cl)cccc3Cl)cc2)ccc1CO [Example 8] |  |
| < 1000 | Cc1cc(-c2cccc(S(C)(=O)=O)c2)ccc1-n1cc(C(C)(C)O)nc1-c1c(F)cccc1Cl [Example 187, 2-(2-(2-chloro-6-fluorophenyl)-1-(3-methyl-3′-(methylsulfonyl)biphenyl-4-yl)-1H-imidazol-4-yl)propan-2-ol] |  |
| < 1000 | CCOC(=O)c1cn(-c2ccc(-c3cccc(S(C)(=O)=O)c3)cc2Cl)c(-c2c(Cl)cccc2Cl)n1 [Example 68, ethyl 1-(3-chloro-3′-(methyl-sulfonyl)biphenyl-4-yl)-2-(2,6-dichlorophenyl)-1H-imidazole-4-carboxylate] |  |
| < 1000 | Cc1cccc(Cl)c1-c1nc(C(C)(C)O)cn1-c1ccc(-c2cccc(S(C)(=O)=O)c2)cc1 [Example 394, 2-{2-(2-chloro-6-methylphenyl)-1-[3′-(methylsulfonyl)biphenyl-4-yl]-1H-imidazol-4-yl}propan-2-ol] |  |
